Experimental data: US7045533B2, “Naphthalene derivatives” (Novartis AG, priority 2000, dated 2006)

Tests used:
Wistar rats = experiment: Test II: Neuropathic Pain Model (partial ligation of the sciatic nerve, mechanical hyperalgesia); format: in vivo; conditions: p.o.; dose necessary to produce 50% reversal of hyperalgesia; rat
Source text: Test II: Neuropathic Pain Model
Hyperalgesia is examined in the model of neuropathic pain Induced by partial ligation of the sciatic nerve as described by Seltzer et al. (1990). Briefly, Wistar rats (120–140 g) are anaesthetised, the left sciatic nerve exposed at mid-thigh level through a small incision and ⅓ to ½ of the nerve thickness tightly ligated within a 7.0 silk suture. The wound is closed with a single muscle suture and skin clips and dusted with Aureomycin antibiotic powder. The animals are allowed to recover and used 12–15 days following surgery.
Mechanical hyperalgesia is assessed by measuring paw withdrawal thresholds to an increasing pressure stimulus placed onto the dorsal surface of the paw using an analgesymeter (Ugo-Basile, Milan) with a cut-off of 250 g. Withdrawal thresholds are measured on both the ipsilateral (ligated) and contralateral (unligated) paw prior to (predose) and then up to 6 h following drug or vehicle administration. Data are expressed as withdrawal threshold (g) and percentage reversal of hyperalgesia calculated according to the following formula: […]
Potency is expressed as D50 value, i.e. the dose of compound necessary to produce 50% reversal of hyperalgesia.

SMILES	melting point [°C]	D50 value in the neuropathic pain model (Wistar rats) [mg/kg]
CCCCCOc1ccc(S(=O)(=O)N2CCCc3ccccc32)c2ccccc12	78 to 80	
CCCCCOc1ccc(C(=O)Oc2cccc3ccccc23)c2ccccc12	95 to 100	
CCCCCOc1ccc([S+]([O-])c2cccc3ccccc23)c2ccccc12 (centres unmarked)	88 to 91	
CCCCCOc1ccc(S(=O)(=O)c2cccc3ccccc23)c2ccccc12	143 to 144	
CCCCCOc1ccc(C(=O)c2cccc3ccccc23)c2ccccc12 [Example 1, naphthalen-1-yl-(4-pentyloxy-naphthalen-1-yl)-methanone]		0.18
